A value given as a limit tells only on which side of the number the result lay.

For orientation: EC50 means the concentration giving half of the maximal effect. As a reminder, the CC50 is the concentration at which the toxic effect on the cells reaches its halfway point.

Data set [1] deals with human cryopreserved hepatocytes. As to the kind of experiment: Stability Assay in Cryopreserved Hepatocytes (human). The settings on record: 1 μM, calculated from half-life using the well-stirred model. It is filed as in vitro ADME. On the procedure: Test compound was incubated at 1 μM with either rat or human cryopreserved hepatocytes (BioIVT, Westbury, NY) up to 6 hours at 37° C. in a 24-well plate format (1×10^6 cells/mL per well). At specified time points, samples were transferred to a 96-well plate and quenched with 2 volumes of a solution containing 90% acetonitrile 10% methanol 0.1% formic acid and internal standard. Sample plate was centrifuged at 3200 rpm for 15 min and supernatants transferred to a new plate containing half volume of water. The resulting solution was analyzed by LC-MS/MS. Data (analyte to internal standard peak area ratio) was plotted on a semi-log scale and fitted using an exponential fit. Assuming first order kinetics, the half-life (t1/2) and rate of metabolism were determined. Predicted hepatic clearance was calculated from the half-life using the well-stirred model.

The subject of data set [2] is HSV-2 virus (MS strain). Briefly: HSV-2 Cellomics Assay (immunofluorescence of HSV protein gD in infected ARPE-19 cells).
The nature of data set [3]: MT-4 CC50 Assay (CellTiter Glo). Format: cell-based. Conditions: human, MT-4 cells, luminescence, read-out: CC50-MT4. The method, then: Compounds were tested in 384-well plates: 18 compounds in duplex. Compounds were diluted in 7 points, 3-fold with DMSO by Bravo. Assay plate, which contains 20 uL medium with compounds, was seeded 2000 MT-4 cells in 20 uL/well by Multi-drop to start the assay. The plate was incubated at 37° C. for 5 days. On 6th day, the CellTiter Glo 40 uL was added in each well. Luminescence was read by Victor II.

The subject of data set [4] is HSV-2 virus (MS strain). As to the kind of experiment: HSV qPCR Assay (HSV replication in ARPE-19 cells). A general note: Real-time PCR tracks product formation cycle by cycle.
[5] abbreviates: Human alphaherpesvirus 2, ARPE-19, 16 h, read-out: EC50-HSV2-10% Human Serum.
The mark [6] stands for this setting: Human alphaherpesvirus 2, ARPE-19, 16 h, read-out: EC50-HSV2-FBS.
The mark [7] stands for this setting: Human alphaherpesvirus 2, ARPE-19, read-out: EC50-HSV2-qPCR.
[8] abbreviates: Human alphaherpesvirus 2, ARPE-19, read-out: EC50 in HSV qPCR assay.

For the compound `NS(=O)(=O)c1ccc2c(c1)N(C(=O)[C@@H]1Cc3ccc(-c4ccncc4)cc3C1)CC2` [Example 131, (R)-1-(5-(pyridin-4-yl)-2,3-dihydro-1H-indene-2-carbonyl)indoline-6-sulfonamide], the “Predicted human hepatic clearance” value in data set [1] was 0.57 L/h/kg. Also, the EC50 is no less than 10 µM in data set [2] (setting [5]) and 0.753 µM in data set [2] (setting [6]).

`C[C@@H]1Cc2cc(Cl)c(S(N)(=O)=O)cc2N1C(=O)[C@@H]1Cc2ccc(-c3ccccn3)cc2C1` [Example 60, (R)-5-chloro-2-methyl-1-((R)-5-(pyridin-2-yl)-2,3-dihydro-1H-indene-2-carbonyl)indoline-6-sulfonamide]: the “Predicted human hepatic clearance” value in data set [1] is 0.17 L/h/kg. Also, in data set [3], the 50% cytotoxic concentration (CC50) at 5 days was no less than 10 µM. Further, the concentration for a half-maximal effect (EC50) amounted to 0.434 µM in data set [2] (setting [5]) and 0.013 µM in data set [2] (setting [6]).

With `C[C@H]1Cc2ccc(S(N)(=O)=O)cc2N1C(=O)[C@@H]1Cc2ccc(-c3ccccn3)cc2C1` (single isomer, unassigned) [Example 16], the “Predicted human hepatic clearance” value in data set [1] is 0.12 L/h/kg. Besides, the half-maximal effective concentration (EC50) in data set [2] (setting [6]) worked out at 0.775 µM.

As for `C[C@H]1Cc2cc(F)c(S(N)(=O)=O)cc2N1C(=O)[C@H]1Cc2ccc(-c3ccccn3)cc2C1` [Example 140, (S)-5-fluoro-2-methyl-1-((S)-5-(pyridin-2-yl)-2,3-dihydro-1H-indene-2-carbonyl)indoline-6-sulfonamide], the “Predicted human hepatic clearance” value in data set [1] was 0.36 L/h/kg. The concentration for a half-maximal effect (EC50) in data set [2] (setting [5]) and in data set [2] (setting [6]) was no less than 10 µM in each case.

As to `NS(=O)(=O)c1cc2c(cc1F)CCN2C(=O)[C@@H]1Cc2ccc(-c3cc(F)ccc3F)cc2C1` [Example 58, (R)-1-(5-(2,5-difluorophenyl)-2,3-dihydro-1H-indene-2-carbonyl)-5-fluoroindoline-6-sulfonamide], in data set [1], the “Predicted human hepatic clearance” value was 0.32 L/h/kg. Moreover, the CC50 at 5 days in data set [3] was no less than 10 µM. Further, the 50% effective concentration (EC50) worked out at 4.31 µM in data set [2] (setting [5]) and 0.012 µM in data set [2] (setting [6]).

For `NS(=O)(=O)c1ccc2c(c1)N(C(=O)C1Cc3ccc(-c4ccccc4F)cc3C1)CC2` (centres unmarked) [Example 70, 1-(5-(2-fluorophenyl)-2,3-dihydro-1H-indene-2-carbonyl) indoline-6-sulfonamide], the EC50 in data set [4] (setting [7]) was 0.0258 µM; in data set [2] (setting [5]), no less than 25 µM; in data set [2] (setting [6]), 0.091 µM.

Turning to `C[C@H]1Cc2cc(F)c(S(N)(=O)=O)cc2N1C(=O)[C@@H]1Cc2ccc(-c3ccccn3)cc2C1` [Example 34], in data set [1], the “Predicted human hepatic clearance” value is 0.20 L/h/kg. Also, the EC50 in data set [2] (setting [5]) amounted to 1.57 µM; in data set [2] (setting [6]), 0.158 µM.

Turning to `NS(=O)(=O)c1ccc2c(c1)N(C(=O)[C@@H]1Cc3ccc(-c4cnccn4)cc3C1)CC2` [Example 87, (R)-1-(5-(pyrazin-2-yl)-2,3-dihydro-1H-indene-2-carbonyl)indoline-6-sulfonamide], the “Predicted human hepatic clearance” value in data set [1] was 0.31 L/h/kg. In addition, the CC50 at 5 days in data set [3] is 0.306 µM. Besides, the EC50 in data set [2] (setting [5]) came out at 3.28 µM; in data set [2] (setting [6]) it was 0.013 µM.

`C[C@@H]1Cc2cc(F)c(S(N)(=O)=O)cc2N1C(=O)[C@@H]1Cc2ccc(-c3cc(F)ccc3F)cc2C1` [Example 61, (R)-1-((R)-5-(2,5-difluorophenyl)-2,3-dihydro-1H-indene-2-carbonyl)-5-fluoro-2-methylindoline-6-sulfonamide]: the “Predicted human hepatic clearance” value in data set [1] was 0.15 L/h/kg. The 50% cytotoxic concentration (CC50) at 5 days in data set [3] was no less than 10 µM. Also, the half-maximal effective concentration (EC50) came out at 0.169 µM in data set [2] (setting [5]) and 0.028 µM in data set [2] (setting [6]).

`NS(=O)(=O)c1cc2c(cc1F)CCN2C(=O)C1Cc2ccc(-c3ccccn3)cc2O1` (centres unmarked) [Example 116, 5-fluoro-1-(6-(pyridin-2-yl)-2,3-dihydrobenzofuran-2-carbonyl)indoline-6-sulfonamide]: the “Predicted human hepatic clearance” value in data set [1] was 0.05 L/h/kg. Besides, the EC50 came out at 0.489 µM in data set [2] (setting [5]) and 0.042 µM in data set [2] (setting [6]).

As to `NS(=O)(=O)c1cc2c(cc1F)C[C@H](CF)N2C(=O)[C@@H]1Cc2ccc(-c3ccccn3)cc2C1` [Example 126, (R)-5-fluoro-2-(fluoromethyl)-1-((R)-5-(pyridin-2-yl)-2,3-dihydro-1H-indene-2-carbonyl)indoline-6-sulfonamide], the EC50 in data set [4] (setting [7]) is 0.0567 µM; in data set [2] (setting [5]) it was no less than 10 µM; in data set [2] (setting [6]) it was no less than 1 µM. Further, in data set [1], the “Predicted human hepatic clearance” value is 0.16 L/h/kg.

For `NS(=O)(=O)c1ccc2c(c1)N(C(=O)[C@@H]1Cc3ccc(-c4ncccc4F)cc3C1)CC2` [Example 89, (R)-1-(5-(3-fluoropyridin-2-yl)-2,3-dihydro-1H-indene-2-carbonyl)indoline-6-sulfonamide], the “Predicted human hepatic clearance” value in data set [1] was 0.05 L/h/kg. Moreover, the CC50 at 5 days in data set [3] amounted to 0.308 µM. For the same compound, the EC50 in data set [2] (setting [5]) was 1.96 µM; in data set [2] (setting [6]), 0.023 µM.

Turning to `Nc1nc2c(ncn2COCCO)c(=O)[nH]1` [acyclovir, reference compound], the concentration giving a half-maximal response (EC50) in data set [4] (setting [8]) worked out at 1.25 µM.

On to `Cc1cccc(C)c1N(CC(=O)Nc1ccc(-c2ncon2)cc1)C(=O)C1CCS(=O)(=O)CC1` [amenamevir, reference compound], for which the EC50 in data set [4] (setting [8]) was determined as 0.014 µM.

On to `NS(=O)(=O)c1cc2c(cc1F)CCN2C(=O)[C@@H]1Cc2ccc(-c3ccccn3)cc2C1` [Example 28], for which, in data set [1], the “Predicted human hepatic clearance” value is 0.22 L/h/kg. Also, the CC50 at 5 days in data set [3] is no less than 50 µM. Also, the values for the EC50 in data set [2] (setting [5]) and in data set [2] (setting [6]) were 8.44 µM and 0.006 µM, respectively.

Regarding `Cc1nc(N(C)C(=O)Cc2ccc(-c3ccccn3)cc2)sc1S(N)(=O)=O` [pritelivir, reference compound], the EC50 is 0.014 µM in data set [4] (setting [8]) and 0.15 µM in data set [2] (Human alphaherpesvirus 2, ARPE-19, read-out: EC50 in HSV-2 Cellomics assay).

On to `C[C@@H]1Cc2cc(F)c(S(N)(=O)=O)cc2N1C(=O)[C@@H]1Cc2ccc(-c3cc(F)cc(F)c3F)cc2C1` [Example 62, (R)-5-fluoro-2-methyl-1-((R)-5-(2,3,5-trifluorophenyl)-2,3-dihydro-1H-indene-2-carbonyl)indoline-6-sulfonamide], for which the CC50 at 5 days in data set [3] is no less than 10 µM. Besides, the EC50 stood at 0.318 µM in data set [2] (setting [5]) and 0.059 µM in data set [2] (setting [6]).

Turning to `C[C@@H]1[C@@H](C)c2cc(F)c(S(N)(=O)=O)cc2N1C(=O)[C@@H]1Cc2ccc(-c3ccccn3)cc2C1` [Example 46, (2R,3S)-5-fluoro-2,3-dimethyl-1-((R)-5-(pyridin-2-yl)-2,3-dihydro-1H-indene-2-carbonyl)indoline-6-sulfonamide], the cytotoxic concentration (CC50) at 5 days in data set [3] was no less than 10 µM. Besides, the EC50 in data set [2] (setting [5]) was 0.143 µM; in data set [2] (setting [6]), 0.016 µM.

Regarding `C[S@](=N)(=O)c1cc2c(cc1F)CCN2C(=O)[C@@H]1Cc2ccc(-c3cc(F)ccc3F)cc2C1` [Example 53], the CC50 at 5 days in data set [3] is no less than 10 µM. Besides, the EC50 was determined as 0.415 µM in data set [2] (setting [5]) and 0.048 µM in data set [2] (setting [6]).

On to `NS(=O)(=O)c1ccc2c(c1)N(C(=O)[C@@H]1Cc3ccc(-c4cccnc4)cc3C1)CC2` [Example 130, (R)-1-(5-(pyridin-3-yl)-2,3-dihydro-1H-indene-2-carbonyl)indoline-6-sulfonamide], for which, in data set [1], the “Predicted human hepatic clearance” value is 0.45 L/h/kg. Also, the values for the half-maximal effective concentration (EC50) in data set [2] (setting [5]) and in data set [2] (setting [6]) were no less than 10 µM and 0.11 µM, respectively.

As to `CC[C@@H]1Cc2ccc(S(N)(=O)=O)cc2N1C(=O)[C@@H]1Cc2ccc(-c3ccccn3)cc2C1` [Example 68, (R)-2-ethyl-1-((R)-5-(pyridin-2-yl)-2,3-dihydro-1H-indene-2-carbonyl)indoline-6-sulfonamide], the CC50 at 5 days in data set [3] is no less than 10 µM. Besides, the results for the EC50 in data set [2] (setting [5]) and in data set [2] (setting [6]) were 0.233 µM and 0.031 µM, respectively.

As to `NS(=O)(=O)c1ccc2c(c1)N(C(=O)[C@H]1Cc3ccc(-c4cnccn4)cc3C1)CC2` [Example 86, (S)-1-(5-(pyrazin-2-yl)-2,3-dihydro-1H-indene-2-carbonyl)indoline-6-sulfonamide], the half-maximal cytotoxic concentration (CC50) at 5 days in data set [3] came out at 28.5 µM. For the same compound, the EC50 in data set [2] (setting [6]) amounted to 0.455 µM.

Turning to `NS(=O)(=O)c1ccc2c(c1)N(C(=O)[C@@H]1Cc3ccc(-c4ccncn4)cc3C1)CC2` [Example 129, (R)-1-(5-(pyrimidin-4-yl)-2,3-dihydro-1H-indene-2-carbonyl)indoline-6-sulfonamide], the “Predicted human hepatic clearance” value in data set [1] is 1.05 L/h/kg. Besides, the values for the EC50 in data set [2] (setting [5]) and in data set [2] (setting [6]) were 7.61 µM and 0.231 µM, respectively.

For the compound `NS(=O)(=O)c1cc2c(cc1F)CCN2C(=O)C1Cc2ccc(-c3ccccn3)cc2C1` (centres unmarked) [Example 8], the cytotoxic concentration (CC50) at 5 days in data set [3] amounted to 42.3 µM. Moreover, the EC50 in data set [2] (setting [5]) amounted to 22.7 µM; in data set [2] (setting [6]), 0.0099 µM.

As for `CC1CN(C(=O)C2Cc3ccc(-c4ccccn4)cc3C2)c2cc(S(N)(=O)=O)ccc21` (centres unmarked) [Example 106, 3-Methyl-1-[5-(2-pyridyl)indane-2-carbonyl]indoline-6-sulfonamide], the EC50 was determined as 0.0109 µM in data set [4] (setting [7]) and 0.081 µM in data set [2] (setting [6]).

Turning to `CC1Cc2ccc(S(N)(=O)=O)cc2N1C(=O)C1Cc2ccc(-c3ccccn3)cc2C1` (centres unmarked) [Example 3], the concentration giving a half-maximal response (EC50) in data set [4] (setting [7]) is 0.0185 µM; in data set [2] (setting [5]) it was no less than 25 µM; in data set [2] (setting [6]), 0.129 µM.

Values taken from patent US12522582B2 (Gilead Sciences, Inc., priority 2022, dated 2026).
